Values joined by “and” are separate entries in the source; they are usually repeats but may differ in a detail not shown here. Identical values can stand only once. Counter-ions that a name gives are not always drawn.

Test [1] concerns 18C-18R duplex. Nature of the test: UV melting (thermal denaturation) and ΔTm analysis, 18C-18R duplex. The format is binding, HIV-1. The following applies: for Ka (ΔTm-derived association constant): extrapolated to 25° C.; for greater affinity for the 18C-18R duplex than for the 18C-18D duplex: 18C-18R versus 18C-18D; for enhancement of thermal stability of the duplex (ΔTm): 18C-18R, drug to duplex ratio (rdup) 3.0, FIG. 3a. The protocol:
All UV absorbance experiments were conducted on an AVIV Model 14DS Spectrophotometer (Aviv Associates; Lakewood, N.J.) equipped with a thermoelectrically controlled cell holder. A quartz cell with a 1 cm pathlength was used for all the absorbance studies. Absorbance versus temperature profiles were measured at 274 nm with a 6 sec averaging time. The temperature was raised in 0.5° C. increments, and the samples were allowed to equilibrate for 1 min at each temperature setting. In these thermal denaturation studies, 18C-18R and 18C-18D solutions were […] in duplex and contained aminoglycoside at concentrations ranging from 0 to 12 μM. The duplex solutions were preheated for 5 min at 85° C. and then cooled to room temperature prior to addition of the drug. The buffer solutions for the UV melting experiments contained 10 mM PIPES (pH 6.0) and 5 mM MgCl2. For each optically detected transition, the melting temperature (Tm) was determined. Marky, L. A. & Breslauer, K. J. Calculating thermodynamic data for transitions of any molecularity from equilibrium melting curves, Biopolymers 26, 1601-1620 (1987).
The ΔTm method described below was used to derive aminoglycoside-duplex association constants (Ka). Measured aminoglycoside-induced changes in the thermal stability of the host duplexes (FIG. 3) were used to estimate the apparent drug-duplex association constants at Tm (KTm) from the following expression (Crothers, D. M. Statistical thermodynamics of nucleic acid melting transitions with coupled binding equilibria, Biopolymers 10, 2147-2160 (1971)): [formula]
In this expression, TmO and Tm are the melting temperatures of the drug-free and drug-bound duplex, respectively, n is the number of drug molecules bound per duplex, ΔHdup is the enthalpy change for the melting of the duplex in the absence of bound drug, and L is the free drug concentration at Tm (which can be estimated by one half the total drug concentration). Values of ΔHdup for the 18C-18R and 18C-18D duplexes were determined from the shapes of their UV melting profiles using the following relationship (Marky, L. A. & Breslauer, K. J. Calculating thermodynamic data for transitions of any molecularity from equilibrium melting curves, Biopolymers 26, 1601-1620 (1987)): [formula]
where α is the fraction of single strand. This calculation yielded ΔHdup values of 157.8 kcal/mol for the 18C-18R duplex and 130.3 kcal/mol for the 18C-18D duplex. For meaningful comparisons, the calculated apparent binding constants at Tm should be extrapolated to a common reference temperature using the standard relationship: [formula]
where ΔHb is the enthalpy of drug binding.

In test [2] the test system is 18C-18R duplex. Nature of the test: Isothermal titration calorimetry (ITC), 18C-18R duplex. The format is binding, HIV-1. The following applies: for ΔHb (binding enthalpy): 18C-18R duplex, ITC at 25° C. The protocol: Isothermal calorimetric measurements were performed at 25° C. on a MicroCal VP-ITC (MicroCal, Inc., Northampton, Mass.). In a typical experiment, 5 μl aliquots of 500 μM aminoglycoside were injected from a 250 μl rotating (430 RPM) syringe into an isothermal sample chamber containing 1.31 mL of either a 18C-18R solution that was 10 μM in duplex or a 18C-18D solution that was 15 μM in duplex. Each experiment of this type was accompanied by the corresponding control experiment in which 5 μL aliquots of 500 μM drug were injected into a solution of buffer alone. The duration of each injection was 5 seconds and the delay between injections was 240 seconds. The initial delay prior to the first injection was 60 seconds. Each injection generated a heat burst curve (μcal/sec vs. sec). The area under each curve was determined by integration [using the Origin version 5.0 software (MicroCal, Inc., Northampton, Mass.)] to obtain a measure of the heat associated with that injection. The heat associated with each drug-buffer injection was subtracted from the corresponding heat associated with each drug-duplex injection to yield the heat of drug binding for that injection. The calorimeter was calibrated both electronically and chemically. Pilch, D. S., Kirolos, M. A., Liu, X., Plum, G. E. & Breslauer, K. J. Berenil [1,3-bis-(4′-amidinophenyl)triazene] binding to DNA duplexes and to a RNA duplex: Evidence for both intercalative and minor groove binding properties, Biochemistry 34, 9962-9976 (1995). All duplex solutions were preheated for 5 minutes at 85° C. and then cooled to room temperature prior to their use in the ITC experiments. The buffer solutions for the ITC experiments contained 10 mM PIPES (pH 6.0) and 5 mM MgCl2.
Table 1 summarizes the apparent association constants at 25° C. that were calculated using equations (1)-(3) for neomycin and paromomycin binding to the 18C-18R and 18C-18D duplexes. The drug binding enthalpies (ΔHb) required for extrapolation of the binding constants at Tm to common reference temperature of 25° C. using equation (3) were determined using isothermal titration calorinietry (ITC). […] Each of the heat burst curves in FIG. 4 corresponds to a single drug injection, with the seven injections resulting in a final drug to duplex ratio (rdup) of either 0.83 (when 18C-18D served as the target duplex) or 1.25 (when 18C-18R served as the target duplex). The areas under these heat burst curves were determined by integration to yield the associated injection heats. For each titration, the seven injection heats were similar in magnitude, an observation consistent with all of the injected drug being bound by the host duplex. These injection heats were corrected by subtraction of the corresponding dilution heats derived from the injection of identical amounts of drug into buffer alone. The resulting corrected injection heats then were divided by the total concentration of injected drug and averaged to yield the ΔHb values listed in Table 1.
(Isothermal titration calorimetry measures the heat released or taken up as one component is titrated into another.)

In a further test the test system is HIV-1. The following applies: chronically infected cells; Zapp et al., Cell 74 (1993); cited from earlier work.

With Neomycin trisulfate trihydrate, in the test on 18C-18R duplex [1] (18C-18R duplex), the “difference in affinity, neomycin greater than paromomycin” value was determined as 20 fold and the “Ka (ΔTm-derived association constant)” value is “(8.6 ± 1.5) × 10^6 M^−1”. In the test on 18C-18R duplex [1] (trisulfate trihydrate), the “greater affinity for the 18C-18R duplex than for the 18C-18D duplex” value was “≈ 5 fold and 5 fold”. In the test with 18C-18R duplex [1], the “enhancement of thermal stability of the duplex (ΔTm)” value was found to be 4.8 °C. Further, the “ΔHb (binding enthalpy)” value in the test with 18C-18R duplex [2] (listed as Neomycin, trisulfate trihydrate) is -8.8 ± 0.1 kcal/mol. In addition, in the test on 18C-18R duplex [2] (trisulfate trihydrate), the “ΔHb (binding enthalpy)” value was -8.8 kcal/mol. Further, in the test on 18C-18R duplex [2] (ITC, 18C-18R), the binding stoichiometry result is listed as “approximately five”. For the same compound, the “inhibition of HIV-1 production” value with HIV-1 is on record as “inhibit HIV-1 production in chronically infected cells”.

In the case of `NC[C@@H]1O[C@H](O[C@H]2[C@@H](O)[C@H](O[C@@H]3[C@@H](O)[C@H](N)C[C@H](N)[C@H]3O[C@H]3O[C@H](CO)[C@@H](O)[C@H](O)[C@H]3N)O[C@@H]2CO)[C@H](N)[C@@H](O)[C@@H]1O` [paromomycin, paromomycin sulfate], the “Ka (ΔTm-derived association constant)” value with 18C-18R duplex [1] (18C-18R duplex) is given as “(4.3 ± 1.6) × 10^5 M^−1”. Besides, in the test with 18C-18R duplex [1], the “greater affinity for the 18C-18R duplex than for the 18C-18D duplex” value is given as 2 fold and the “enhancement of thermal stability of the duplex (ΔTm)” value stood at 1.4 °C. The “ΔHb (binding enthalpy)” value in the test on 18C-18R duplex [2] was -4.5 kcal/mol. In addition, the “ΔHb (binding enthalpy)” value in the test with 18C-18R duplex [2] (listed as Paromomycin) was -4.5 ± 0.1 kcal/mol.

These data come from patent US20030069194A1, “Inhibition of viral replication by targeting RNA-DNA complexes” (priority 2001, published 2003).
